Measurements reported in ChEMBL document CHEMBL2440076, “New triarylpyrazoles as broad-spectrum anticancer agents: design, synthesis, and biological evaluation” (Eur J Med Chem, 2013).

What was measured:
Format in all cases: functional
DU-145 = test: Growth inhibition of human DU145 cells assessed as cell growth at 5X10'-6 M after 48 hrs by sulforhodamine B assay; conditions: DU-145, 48 h, read-out: Activity
[1] = Growth inhibition of human NCI-ADR-RES cells assessed as cell growth at 5X10'-6 M after 48 hrs by sulforhodamine B assay; conditions: read-out: Activity
Malme-3M [2] = test: Growth inhibition of human MALME-3M cells assessed as cell growth at 3X10'-6 M after 48 hrs by sulforhodamine B assay; conditions: read-out: Activity
SW-620 = test: Growth inhibition of human SW620 cells assessed as cell growth at 3X10'-5 M after 48 hrs by sulforhodamine B assay; conditions: SW-620, 48 h, read-out: Activity
SR [3] = test: Growth inhibition of human SR cells assessed as cell growth at 3X10'-5 M after 48 hrs by sulforhodamine B assay; conditions: read-out: Activity
SN12C = test: Growth inhibition of human SN12C cells assessed as cell growth at 3X10'-7 M after 48 hrs by sulforhodamine B assay; conditions: read-out: Activity
IGROV-1 = test: Growth inhibition of human IGROV1 cells assessed as cell growth at 3X10'-8 M after 48 hrs by sulforhodamine B assay; conditions: IGROV-1, 48 h, read-out: Activity
NCI-H23 = test: Growth inhibition of human NCI-H23 cells assessed as cell growth at 3X10'-7 M after 48 hrs by sulforhodamine B assay; conditions: NCI-H23, 48 h, read-out: Activity
SK-MEL-5 = test: Growth inhibition of human SK-MEL-5 cells assessed as cell growth at 3X10'-5 M after 48 hrs by sulforhodamine B assay; conditions: SK-MEL-5, 48 h, read-out: Activity
UO-31 [4] = test: Growth inhibition of human UO31 cells assessed as cell growth at 3X10'-8 M after 48 hrs by sulforhodamine B assay; conditions: UO-31, 48 h, read-out: Activity
TK-10 = test: Growth inhibition of human TK10 cells assessed as cell growth at 3X10'-6 M after 48 hrs by sulforhodamine B assay; conditions: TK-10, 48 h, read-out: Activity
UACC-62 = test: Growth inhibition of human UACC62 cells assessed as cell growth at 3X10'-6 M after 48 hrs by sulforhodamine B assay; conditions: UACC-62, 48 h, read-out: Activity
BT-549 = test: Growth inhibition of human BT549 cells assessed as cell growth at 3X10'-6 M after 48 hrs by sulforhodamine B assay; conditions: BT-549, 48 h, read-out: Activity
HCT-15 [5] = test: Growth inhibition of human HCT15 cells assessed as cell growth at 3X10'-8 M after 48 hrs by sulforhodamine B assay; conditions: HCT-15, 48 h, read-out: Activity
CAKI-1 = test: Growth inhibition of human CAKI-1 cells assessed as cell growth at 3X10'-5 M after 48 hrs by sulforhodamine B assay; conditions: CAKI-1, 48 h, read-out: Activity
NCI-H522 = test: Growth inhibition of human NCI-H522 cells assessed as cell growth at 3X10'-7 M after 48 hrs by sulforhodamine B assay; conditions: NCI-H522, 48 h, read-out: Activity
SF-268 [6] = test: Growth inhibition of human SF268 cells assessed as cell growth at 3X10'-6 M after 48 hrs by sulforhodamine B assay; conditions: SF-268, 48 h, read-out: Activity
NCI-H322M [7] = test: Growth inhibition of human NCI-H322M cells assessed as cell growth at 3X10'-8 M after 48 hrs by sulforhodamine B assay; conditions: read-out: Activity
MOLT-4 = test: Growth inhibition of human MOLT4 cells assessed as cell growth at 3X10'-7 M after 48 hrs by sulforhodamine B assay; conditions: MOLT-4, 48 h, read-out: Activity
UO-31 [8] = test: Growth inhibition of human UO31 cells assessed as cell growth at 3X10'-9 M after 48 hrs by sulforhodamine B assay; conditions: UO-31, 48 h, read-out: Activity
SR [9] = test: Growth inhibition of human SR cells assessed as cell growth at 3X10'-8 M after 48 hrs by sulforhodamine B assay; conditions: read-out: Activity
NCI-H460 = test: Growth inhibition of human NCI-H460 cells assessed as cell growth at 3X10'-5 M after 48 hrs by sulforhodamine B assay; conditions: NCI-H460, 48 h, read-out: Activity
SF-268 [10] = test: Growth inhibition of human SF268 cells assessed as cell growth at 3X10'-7 M after 48 hrs by sulforhodamine B assay; conditions: SF-268, 48 h, read-out: Activity
HT-29 = test: Growth inhibition of human HT-29 cells assessed as cell growth at 3X10'-7 M after 48 hrs by sulforhodamine B assay; conditions: HT-29, 48 h, read-out: Activity
Malme-3M [11] = test: Growth inhibition of human MALME-3M cells assessed as cell growth at 3X10'-9 M after 48 hrs by sulforhodamine B assay; conditions: read-out: Activity
RXF 393 = test: Growth inhibition of human RXF393 cells assessed as cell growth at 3X10'-6 M after 48 hrs by sulforhodamine B assay; conditions: RXF 393, 48 h, read-out: Activity
OVCAR-4 = test: Growth inhibition of human OVCAR4 cells assessed as cell growth at 3X10'-7 M after 48 hrs by sulforhodamine B assay; conditions: OVCAR-4, 48 h, read-out: Activity
HCT-15 [12] = test: Growth inhibition of human HCT15 cells assessed as cell growth at 3X10'-5 M after 48 hrs by sulforhodamine B assay; conditions: HCT-15, 48 h, read-out: Activity
COLO 205 = test: Growth inhibition of human COLO205 cells assessed as cell growth at 3X10'-9 M after 48 hrs by sulforhodamine B assay; conditions: COLO 205, 48 h, read-out: Activity
786-0 = test: Growth inhibition of human 786-0 cells assessed as cell growth at 3X10'-7 M after 48 hrs by sulforhodamine B assay; conditions: 786-0, 48 h, read-out: Activity
HL-60(TB) = test: Growth inhibition of human HL-60(TB) cells assessed as cell growth at 3X10'-9 M after 48 hrs by sulforhodamine B assay; conditions: HL-60, 48 h, read-out: Activity
NCI-H322M [13] = test: Growth inhibition of human NCI-H322M cells assessed as cell growth at 3X10'-5 M after 48 hrs by sulforhodamine B assay; conditions: read-out: Activity
[14] = Growth inhibition of human HCC2998 cells assessed as cell growth at 3X10'-8 M after 48 hrs by sulforhodamine B assay; conditions: HCC 2998, 48 h, read-out: Activity
NCI-H322M [15] = test: Growth inhibition of human NCI-H322M cells assessed as cell growth at 3X10'-6 M after 48 hrs by sulforhodamine B assay; conditions: read-out: Activity
OVCAR-5 = test: Growth inhibition of human OVCAR5 cells assessed as cell growth at 3X10'-5 M after 48 hrs by sulforhodamine B assay; conditions: OVCAR-5, 48 h, read-out: Activity
SF-268 [16] = test: Growth inhibition of human SF268 cells assessed as cell growth at 3X10'-5 M after 48 hrs by sulforhodamine B assay; conditions: SF-268, 48 h, read-out: Activity
A498 = test: Growth inhibition of human A498 cells assessed as cell growth at 3X10'-9 M after 48 hrs by sulforhodamine B assay; conditions: A498, 48 h, read-out: Activity

COc1cc(-c2nn(-c3cccc(NC(=O)Nc4ccc(Cl)c(Cl)c4)c3)cc2-c2ccncc2)ccc1Cl
growth at 5 µM (DU-145): 7% | growth at 5 µM [1]: -2%

COc1cc(-c2nn(-c3cccc(NC(=O)c4cccc(C(F)(F)F)c4)c3)cc2-c2ccncc2)ccc1Cl
growth at 5 µM (DU-145): 15% | growth at 5 µM [1]: -21%

O=C(Nc1cccc(-n2cc(-c3ccncc3)c(-c3ccc(Cl)c(O)c3)n2)c1)Nc1ccc(Cl)c(C(F)(F)F)c1
growth at 3 µM (Malme-3M [2]): -32% | growth at 30 µM (SW-620): -43% | growth at 30 µM (SR [3]): -7% | growth at 0.3 µM (SN12C): 91% | growth at 0.03 µM (IGROV-1): 109% | growth at 0.3 µM (NCI-H23): 93% | growth at 30 µM (SK-MEL-5): -97% | growth at 0.03 µM (UO-31 [4]): 95% | growth at 3 µM (TK-10): 24% | growth at 3 µM (UACC-62): -48% | growth at 3 µM (BT-549): 12% | growth at 0.03 µM (HCT-15 [5]): 95% | growth at 30 µM (CAKI-1): -25% | growth at 0.3 µM (NCI-H522): 82% | growth at 3 µM (SF-268 [6]): 10% | growth at 0.03 µM (NCI-H322M [7]): 105% | growth at 0.3 µM (MOLT-4): 83% | growth at 0.003 µM (UO-31 [8]): 94% | growth at 0.03 µM (SR [9]): 104% | growth at 30 µM (NCI-H460): -41% | growth at 0.3 µM (SF-268 [10]): 93% | growth at 0.3 µM (HT-29): 93% | growth at 0.003 µM (Malme-3M [11]): 100% | growth at 3 µM (RXF 393): -28% | growth at 0.3 µM (OVCAR-4): 94% | growth at 30 µM (HCT-15 [12]): -2% | growth at 0.003 µM (COLO 205): 105% | growth at 0.3 µM (786-0): 96% | growth at 0.003 µM (HL-60(TB)): 116% | growth at 30 µM (NCI-H322M [13]): -58% | growth at 0.03 µM [14]: 102% | growth at 3 µM (NCI-H322M [15]): 9% | growth at 30 µM (OVCAR-5): -14% | growth at 30 µM (SF-268 [16]): -20% | growth at 0.003 µM (A498): 91%

O=C(Nc1cccc(-n2cc(-c3ccncc3)c(-c3ccc(Cl)c(O)c3)n2)c1)c1ccc(N2CCOCC2)c(C(F)(F)F)c1
growth at 5 µM (DU-145): 46% | growth at 5 µM [1]: 35%
